68 sequences from the supplement of paper PMC11208160 can be followed below.

This data set can be described thus: recombinant UMI read abundance after kanamycin selection (control-corrected) (log10(CPM+1)); higher = more efficient recombination; extreme values may be limits of the assay; sequences stand for … in AGTGCAGAGAAAATCGGCCAGTTTTCTCTGCCTGCAGTCCGCATGCCGTGGGACCCCTTGGGTTCTAACCTGTTGCCTAGATTTATGCAGCGGACTGCCTTTCTCCCAAAGTGATAAACCGG…AGGTTGGTTTCACT; site = the 11-nt donor. An outline of the steps: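 Reported values are log10(CPM+1) from a pooled Escherichia coli screen of donor and donor-binding-loop pairs for the IS621 bridge recombinase. Selection used IPTG (0.07 mM) plus kanamycin, against unselected plating, each in two replicates. Recombinant UMIs were amplified across the donor–target junction, sequenced, converted to CPM, averaged over replicates and scaled by control-derived factors.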
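Note: IS621 bridge recombinase in Escherichia coli cells against a fixed T5 target plasmid.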

As for “AGCTCCCCATGGACCGGTTTTCCCGGTAATCCGTATTTGGG (site AGCTCCCCTCC)”, the “recombinant UMI read abundance (log10)” value turned out to be 0.111.

As to “AGCTGAGCATGGACCGGTTTTCCCGGTAATCCGTATTTGGG (site AGCTAAGCTCC)”, the “recombinant UMI read abundance (log10)” value is 0.0048.

Regarding “AGCTGAGCATGGACCGGTTTTCCCGGTAATCCGTATTTGGG (site AGCTCAGCTCC)”, the “recombinant UMI read abundance (log10)” value worked out at 0.

Regarding “AGCTGAGCATGGACCGGTTTTCCCGGTAATCCGTATTTGGG (site AGCTGAGCTCC)”, the “recombinant UMI read abundance (log10)” value was found to be 0.385.

For “AGCTGAGCATGGACCGGTTTTCCCGGTAATCCGTATTTGGG (site AGCTTAGCTCC)”, the “recombinant UMI read abundance (log10)” value is 0.0451.

As for “AGCTGCGCATGGACCGGTTTTCCCGGTAATCCGTATTTGAA (site AGCTGCGCTTT)”, the “recombinant UMI read abundance (log10)” value is 1.4.

In the case of “AGCTTCGCATGGACCGGTTTTCCCGGTAATCCGTATTTGAC (site AGCTTCGCTGT)”, the “recombinant UMI read abundance (log10)” value came to 1.58.

Regarding “AGCTTTTCATGGACCGGTTTTCCCGGTAATCCGTATTTGAC (site AGCATTTCTGT)”, the “recombinant UMI read abundance (log10)” value was determined as 0.

With “AGCTTTTCATGGACCGGTTTTCCCGGTAATCCGTATTTGAC (site AGCCTTTCTGT)”, the “recombinant UMI read abundance (log10)” value was 0.

In the case of “AGCTTTTCATGGACCGGTTTTCCCGGTAATCCGTATTTGAC (site AGCGTTTCTGT)”, the “recombinant UMI read abundance (log10)” value was 0.

With “AGCTTTTCATGGACCGGTTTTCCCGGTAATCCGTATTTGAC (site AGCTTTTCTGT)”, the “recombinant UMI read abundance (log10)” value is 0.00446.

For “AGGAAAACATGGACCGGTTTTCCCGGTAATCCGTATTTGCG (site AGGAAAACTCG)”, the “recombinant UMI read abundance (log10)” value amounted to 1.5.

“AGGAAAACATGGACCGGTTTTCCCGGTAATCCGTATTTGCG (site AGGAAGACTTG)”: the “recombinant UMI read abundance (log10)” value was found to be 0.

For “AGGAAAACATGGACCGGTTTTCCCGGTAATCCGTATTTGGG (site AGGAAAACTCC)”, the “recombinant UMI read abundance (log10)” value was found to be 0.592.

For “AGGAACACATGGACCGGTTTTCCCGGTAATCCGTATTTGCC (site AGGAACACTGG)”, the “recombinant UMI read abundance (log10)” value was found to be 3.08.

Take “AGGAACACATGGACCGGTTTTCCCGGTAATCCGTATTTGCC (site AGGAAGACTTG)”: the “recombinant UMI read abundance (log10)” value stood at 0.

Consider “AGGAAGACATGGACCGGTTTTCCCGGTAATCCGTATTTGCT (site AGGAAGACTAG)”, for which the “recombinant UMI read abundance (log10)” value amounted to 2.25.

With “AGGAAGACATGGACCGGTTTTCCCGGTAATCCGTATTTGCT (site AGGAAGACTCG)”, the “recombinant UMI read abundance (log10)” value is 0.519.

“AGGAAGACATGGACCGGTTTTCCCGGTAATCCGTATTTGCT (site AGGAAGACTGG)”: the “recombinant UMI read abundance (log10)” value was 0.

Consider “AGGAAGACATGGACCGGTTTTCCCGGTAATCCGTATTTGCT (site AGGAAGACTTG)”, for which the “recombinant UMI read abundance (log10)” value is 1.46.

In the case of “AGGAAGACATGGACCGGTTTTCCCGGTAATCCGTATTTGGA (site AGGAAGACTTA)”, the “recombinant UMI read abundance (log10)” value came to 1.71.

“AGGAAGACATGGACCGGTTTTCCCGGTAATCCGTATTTGGA (site AGGAAGACTTC)”: the “recombinant UMI read abundance (log10)” value amounted to 2.32.

On to “AGGAAGACATGGACCGGTTTTCCCGGTAATCCGTATTTGGA (site AGGAAGACTTG)”, for which the “recombinant UMI read abundance (log10)” value came to 1.04.

As for “AGGAAGACATGGACCGGTTTTCCCGGTAATCCGTATTTGGA (site AGGAAGACTTT)”, the “recombinant UMI read abundance (log10)” value was found to be 1.63.

In the case of “AGGAAGACATGGACCGGTTTTCCCGGTAATCCGTATTTGTG (site AGGAAGACTCA)”, the “recombinant UMI read abundance (log10)” value stood at 2.35.

“AGGAAGACATGGACCGGTTTTCCCGGTAATCCGTATTTGTG (site AGGAAGACTTG)”: the “recombinant UMI read abundance (log10)” value came out at 0.492.

As to “AGGAAGCCATGGACCGGTTTTCCCGGTAATCCGTATTTGAA (site AGGAAGACTTG)”, the “recombinant UMI read abundance (log10)” value was 0.

For the sequence “AGGAAGCCATGGACCGGTTTTCCCGGTAATCCGTATTTGAA (site AGGAAGCCTTT)”, the “recombinant UMI read abundance (log10)” value turned out to be 0.308.

On to “AGGAAGCCATGGACCGGTTTTCCCGGTAATCCGTATTTGCA (site AGGAAGACTTG)”, for which the “recombinant UMI read abundance (log10)” value was 0.

For “AGGAAGCCATGGACCGGTTTTCCCGGTAATCCGTATTTGCA (site AGGAAGCCTTG)”, the “recombinant UMI read abundance (log10)” value is 0.

As for “AGGAAGCCATGGACCGGTTTTCCCGGTAATCCGTATTTGCA (site AGGAAGGCTTG)”, the “recombinant UMI read abundance (log10)” value came out at 0.

Consider “AGGAAGCCATGGACCGGTTTTCCCGGTAATCCGTATTTGCA (site AGGAAGTCTTG)”, for which the “recombinant UMI read abundance (log10)” value is 0.

Turning to “AGGAAGTCATGGACCGGTTTTCCCGGTAATCCGTATTTGCG (site AGGAAGACTTG)”, the “recombinant UMI read abundance (log10)” value was found to be 0.

For “AGGAAGTCATGGACCGGTTTTCCCGGTAATCCGTATTTGCG (site AGGAAGTCTCG)”, the “recombinant UMI read abundance (log10)” value was 3.16.

Take “AGGAAGTCATGGACCGGTTTTCCCGGTAATCCGTATTTGTA (site AGGAAGACTTG)”: the “recombinant UMI read abundance (log10)” value came to 0.

On to “AGGAAGTCATGGACCGGTTTTCCCGGTAATCCGTATTTGTA (site AGGAAGTCTTA)”, for which the “recombinant UMI read abundance (log10)” value came to 2.97.

“AGGAATACATGGACCGGTTTTCCCGGTAATCCGTATTTGAC (site AGGAATACTGT)”: the “recombinant UMI read abundance (log10)” value was determined as 1.74.

For “AGGAATACATGGACCGGTTTTCCCGGTAATCCGTATTTGAC (site AGGACTACTGT)”, the “recombinant UMI read abundance (log10)” value was found to be 0.624.

In the case of “AGGAATACATGGACCGGTTTTCCCGGTAATCCGTATTTGAC (site AGGAGTACTGT)”, the “recombinant UMI read abundance (log10)” value is 0.

Consider “AGGAATACATGGACCGGTTTTCCCGGTAATCCGTATTTGAC (site AGGATTACTGT)”, for which the “recombinant UMI read abundance (log10)” value came to 0.

In the case of “AGGAATACATGGACCGGTTTTCCCGGTAATCCGTATTTGGC (site AGGAATACTGC)”, the “recombinant UMI read abundance (log10)” value was 2.59.

Regarding “AGGAATCCATGGACCGGTTTTCCCGGTAATCCGTATTTGCT (site AGGAATCCTAG)”, the “recombinant UMI read abundance (log10)” value was 0.

Take “AGGAATCCATGGACCGGTTTTCCCGGTAATCCGTATTTGCT (site CGGAATCCTAA)”: the “recombinant UMI read abundance (log10)” value was found to be 0.0057.

For the sequence “AGGAATCCATGGACCGGTTTTCCCGGTAATCCGTATTTGTT (site AGGAATCCTAA)”, the “recombinant UMI read abundance (log10)” value is 0.74.

On to “AGGAATCCATGGACCGGTTTTCCCGGTAATCCGTATTTGTT (site CGGAATCCTAA)”, for which the “recombinant UMI read abundance (log10)” value came out at 0.0029.

With “AGGAATCCATGGACCGGTTTTCCCGGTAATCCGTATTTGTT (site GGGAATCCTAA)”, the “recombinant UMI read abundance (log10)” value turned out to be 0.

For the sequence “AGGAATCCATGGACCGGTTTTCCCGGTAATCCGTATTTGTT (site TGGAATCCTAA)”, the “recombinant UMI read abundance (log10)” value was 0.

For “AGGACCACATGGACCGGTTTTCCCGGTAATCCGTATTTGAC (site AGGACAACTGT)”, the “recombinant UMI read abundance (log10)” value amounted to 0.0127.

With “AGGACCACATGGACCGGTTTTCCCGGTAATCCGTATTTGAC (site AGGACCACTGT)”, the “recombinant UMI read abundance (log10)” value was 2.79.

On to “AGGACCACATGGACCGGTTTTCCCGGTAATCCGTATTTGAC (site AGGACGACTGT)”, for which the “recombinant UMI read abundance (log10)” value amounted to 0.

On to “AGGACCACATGGACCGGTTTTCCCGGTAATCCGTATTTGAC (site AGGACTACTGT)”, for which the “recombinant UMI read abundance (log10)” value was 0.

As to “AGGATCCCATGGACCGGTTTTCCCGGTAATCCGTATTTGTG (site AGGATCCCTCA)”, the “recombinant UMI read abundance (log10)” value came out at 0.753.

For the sequence “AGGATCCCATGGACCGGTTTTCCCGGTAATCCGTATTTGTG (site AGGCTCCCTCA)”, the “recombinant UMI read abundance (log10)” value came to 0.00372.

“AGGATCCCATGGACCGGTTTTCCCGGTAATCCGTATTTGTG (site AGGGTCCCTCA)”: the “recombinant UMI read abundance (log10)” value was determined as 0.00264.

As for “AGGATCCCATGGACCGGTTTTCCCGGTAATCCGTATTTGTG (site AGGTTCCCTCA)”, the “recombinant UMI read abundance (log10)” value came to 0.051.

Consider “AGGATGACATGGACCGGTTTTCCCGGTAATCCGTATTTGCA (site AGGAAGACTTG)”, for which the “recombinant UMI read abundance (log10)” value was 2.34.

Regarding “AGGATGACATGGACCGGTTTTCCCGGTAATCCGTATTTGCA (site AGGACGACTTG)”, the “recombinant UMI read abundance (log10)” value turned out to be 1.16.

With “AGGATGACATGGACCGGTTTTCCCGGTAATCCGTATTTGCA (site AGGAGGACTTG)”, the “recombinant UMI read abundance (log10)” value was found to be 1.19.

“AGGATGACATGGACCGGTTTTCCCGGTAATCCGTATTTGCA (site AGGATGACTTG)”: the “recombinant UMI read abundance (log10)” value is 2.76.

Regarding “AGGATGCCATGGACCGGTTTTCCCGGTAATCCGTATTTGCT (site AGGATGCCTAG)”, the “recombinant UMI read abundance (log10)” value was 0.721.

On to “AGGATTACATGGACCGGTTTTCCCGGTAATCCGTATTTGAC (site AGGAATACTGT)”, for which the “recombinant UMI read abundance (log10)” value came to 0.

On to “AGGATTACATGGACCGGTTTTCCCGGTAATCCGTATTTGAC (site AGGACTACTGT)”, for which the “recombinant UMI read abundance (log10)” value came to 0.662.

As to “AGGATTACATGGACCGGTTTTCCCGGTAATCCGTATTTGAC (site AGGAGTACTGT)”, the “recombinant UMI read abundance (log10)” value stood at 0.

On to “AGGATTACATGGACCGGTTTTCCCGGTAATCCGTATTTGAC (site AGGATTACTGT)”, for which the “recombinant UMI read abundance (log10)” value was 1.4.

With “AGGCAGACATGGACCGGTTTTCCCGGTAATCCGTATTTGGA (site AGGAAGACTTG)”, the “recombinant UMI read abundance (log10)” value turned out to be 0.

Consider “AGGCAGACATGGACCGGTTTTCCCGGTAATCCGTATTTGGA (site AGGCAGACTTC)”, for which the “recombinant UMI read abundance (log10)” value was found to be 1.21.

For “AGGCGCGCATGGACCGGTTTTCCCGGTAATCCGTATTTGGA (site AGGCGCGCTTC)”, the “recombinant UMI read abundance (log10)” value was determined as 0.849.

For “AGGCTGTCATGGACCGGTTTTCCCGGTAATCCGTATTTGTT (site AGGCTGTCTAA)”, the “recombinant UMI read abundance (log10)” value was found to be 1.64.
